The results in this text go back to patent US20160159789A1, “SUBSTITUTED PYRAZOLOPYRIDINES” (BAYER PHARMA AKTIENGESELLSCHAFT, priority 2013, published 2016).

The target of the test is T1, human full-length MKNK1 (Homo sapiens, UniProt Q9BUB5, T385D).
T1 construct: purchased Carna Biosciences 02-145; host or cells: insect cells (baculovirus expression system)
T1 sequence (Q9BUB5 1-424 isoform Q9BUB5-2 T344D): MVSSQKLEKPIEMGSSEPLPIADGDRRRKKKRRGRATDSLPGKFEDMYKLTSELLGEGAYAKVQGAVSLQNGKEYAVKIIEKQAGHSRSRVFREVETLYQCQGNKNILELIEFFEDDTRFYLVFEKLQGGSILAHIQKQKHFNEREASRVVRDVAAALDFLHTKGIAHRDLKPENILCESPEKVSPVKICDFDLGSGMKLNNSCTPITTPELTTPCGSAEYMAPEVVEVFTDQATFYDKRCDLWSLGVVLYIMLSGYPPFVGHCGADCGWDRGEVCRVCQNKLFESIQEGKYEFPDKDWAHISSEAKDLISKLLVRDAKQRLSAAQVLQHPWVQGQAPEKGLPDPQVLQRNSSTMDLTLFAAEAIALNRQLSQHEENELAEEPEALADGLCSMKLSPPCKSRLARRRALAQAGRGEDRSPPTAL
Briefly: MKNK1 kinase high ATP assay (TR-FRET). It is filed as biochemical. Conditions: high ATP (2 mM final), 15 min preincubation with enzyme, GST-MKNK1 (T344D). How it is done:
MKNK1-inhibitory activity at high ATP of compounds of the present invention after their preincubation with MKNK1 was quantified employing the TR-FRET-based MKNK1 high ATP assay as described in the following paragraphs.
A recombinant fusion protein of Glutathione-S-Transferase (GST, N-terminally) and human full-length MKNK1 (amino acids 1-424 and T344D of accession number BAA 19885.1), expressed in insect cells using baculovirus expression system and purified via glutathione sepharose affinity chromatography, was purchased from Carna Biosciences (product no 02-145) and used as enzyme. As substrate for the kinase reaction the biotinylated peptide biotin-Ahx-IKKRKLTRRKSLKG (C-terminus in amide form) was used, which can be purchased e.g. from the company Biosyntan (Berlin-Buch, Germany).
For the assay 50 nL of a 100 fold concentrated solution of the test compound in DMSO was pipetted into a black low volume 384 well microtiter plate (Greiner Bio-One, Frickenhausen, Germany), 2 μL of a solution of MKNK1 in aqueous assay buffer [50 mM HEPES pH 7.5, 5 mM MgCl2, 1.0 mM dithiothreitol, 0.005% (v/v) Nonidet-P40 (Sigma)] was added and the mixture was incubated for 15 min at 22° C. to allow pre-binding of the test compounds to the enzyme before the start of the kinase reaction. Then the kinase reaction was started by the addition of 3 μL of a solution of adenosine-tri-phosphate (ATP, 3.3 mM=> final conc. in the 5 μL assay volume is 2 mM) and substrate (0.1 μM=> final conc. in the 5 μL assay volume is 0.06 μM) in assay buffer and the resulting mixture was incubated for a reaction time of 30 min at 22° C. The concentration of MKNK1 was adjusted depending of the activity of the enzyme lot and was chosen appropriate to have the assay in the linear range, typical concentrations were in the range of 0.003 μg/mL. The reaction was stopped by the addition of 5 μL of a solution of TR-FRET detection reagents (5 nM streptavidine-XL665 [Cisbio Bioassays, Codolet, France] and 1 nM anti-ribosomal protein S6 (pSer236)-antibody from Invitrogen [#44921G] and 1 nM LANCE EU-W1024 labeled ProteinG [Perkin-Elmer, product no. AD0071]) in an aqueous EDTA-solution (100 mM EDTA, 0.1% (w/v) bovine serum albumin in 50 mM HEPES pH 7.5).
The resulting mixture was incubated for 1 h at 22° C. to allow the formation of complex between the phosphorylated biotinylated peptide and the detection reagents. Subsequently the amount of phosphorylated substrate was evaluated by measurement of the resonance energy transfer from the Eu-chelate to the streptavidine-XL. Therefore, the fluorescence emissions at 620 nm and 665 nm after excitation at 350 nm were measured in a TR-FRET reader, e.g. a Rubystar (BMG Labtechnologies, Offenburg, Germany) or a Viewlux (Perkin-Elmer). The ratio of the emissions at 665 nm and at […] was taken as the measure for the amount of phosphorylated substrate. The data were normalised (enzyme reaction without inhibitor=0% inhibition, all other assay components but no enzyme=100% inhibition).
A word on the IC50: it is the concentration that gives 50% inhibition. High values mean a need for much substance, low ones inhibition by little substance. In turn, `CN(C)C(=O)C1CCc2[nH]c3ncnc(Nc4cc5cn[nH]c5cn4)c3c2C1` (racemic) [Example 31, (RS)—N,N-Dimethyl-4-(1H-pyrazolo[3,4-c]pyridin-5-ylamino)-6,7,8,9-tetrahydro-5H-pyrimido[4,5-b]indole-6-carboxamide] came in with an IC50 of 59.1 nM.

In turn, `C[C@H]1COCCN1C(=O)c1[nH]c2ncnc(Nc3cc4cn[nH]c4cn3)c2c1Br` [Example 121, [5-Bromo-4-(1H-pyrazolo[3,4-c]pyridin-5-ylamino)-7H-pyrrolo[2,3-d]pyrimidin-6-yl][(3S)-3-methylmorpholin-4-yl]methanone] had an IC50 of 30.1 nM.

On to `CC(C)NC(=O)C1CCc2[nH]c3ncnc(Nc4cnc5[nH]ncc5c4)c3c2C1` (racemic) [Example 29, (RS)—N-(Propan-2-yl)-4-(1H-pyrazolo[3,4-b]pyridin-5-ylamino)-6,7,8,9-tetrahydro-5H-pyrimido[4,5-b]indole-6-carboxamide], for which the IC50 came to 24.7 nM.

In turn, `CC(C)N(C)C(=O)[C@H]1CCc2c(sc3ncnc(Nc4cc5cn[nH]c5nc4O)c23)C1` [Example 114, (7S)-4-[(6-Hydroxy-1H-pyrazolo[3,4-b]pyridin-5-yl)amino]-N-methyl-N-(propan-2-yl)-5,6,7,8-tetrahydro[1]benzothieno[2,3-d]pyrimidine-7-carboxamide] had an IC50 of 4.6 nM.

`COc1nc2[nH]ncc2cc1Nc1ncnc2sc3c(c12)CC[C@H](C(=O)N1C[C@H]2C[C@@H]1CO2)C3` [Example 41]: the IC50 turned out to be 1.6 nM.

`O=C([C@H]1CCc2c(sc3ncnc(Nc4cc5cn[nH]c5cn4)c23)C1)N1CCOCC1` [Example 86, Morpholin-4-yl [(7S)-4-(1H-pyrazolo[3,4-c]pyridin-5-ylamino)-5,6,7,8-tetrahydro[1]benzothieno[2,3-d]pyrimidin-7-yl]methanone] returned an IC50 of 7.1 nM.

As for `CN(C)[C@H]1CCN(C(=O)[C@H]2CCc3c(sc4ncnc(Nc5cc6cn[nH]c6cn5)c34)C2)C1` [Example 85, [(3S)-3-(Dimethylamino)pyrrolidin-1-yl][(7S)-4-(1H-pyrazolo[3,4-c]pyridin-5-ylamino)-5,6,7,8-tetrahydro[1]benzothieno[2,3-d]pyrimidin-7-yl]methanone], the IC50 is 4.5 nM.

Compound `CN(C)CCN(C)C(=O)c1[nH]c2ncnc(Nc3cc4cn[nH]c4nc3O)c2c1Br` [Example 63, 5-Bromo-N-[2-(dimethylamino)ethyl]-4-[(6-hydroxy-1H-pyrazolo[3,4-b]pyridin-5-yl)amino]-N-methyl-7H-pyrrolo[2,3-d]pyrimidine-6-carboxamide] gave an IC50 of 14.6 nM.

Compound `CN(C)CCN(C)C(=O)c1cc2c(Nc3cc4cn[nH]c4cn3)ncnc2[nH]1` [Example 77, N-[2-(Dimethylamino)ethyl]-N-methyl-4-(1H-pyrazolo[3,4-c]pyridin-5-ylamino)-7H-pyrrolo[2,3-d]pyrimidine-6-carboxamide] displayed an IC50 of 23.1 nM.

The compound `O=C(c1[nH]c2ncnc(Nc3cc4cn[nH]c4cn3)c2c1Br)N1CCCCC1` [Example 72, [5-Bromo-4-(1H-pyrazolo[3,4-c]pyridin-5-ylamino)-7H-pyrrolo[2,3-d]pyrimidin-6-yl](piperidin-1-yl)methanone] gave an IC50 of 16 nM.

As for `CCN(C)C(=O)[C@H]1CCc2c(sc3ncnc(Nc4cc5cn[nH]c5nc4O)c23)C1` [Example 112, (7S)—N-Ethyl-4-[(6-hydroxy-1H-pyrazolo[3,4-b]pyridin-5-yl)amino]-N-methyl-5,6,7,8-tetrahydro[1]benzothieno[2,3-d]pyrimidine-7-carboxamide], the IC50 is 4.6 nM.

In turn, `O=C(c1[nH]c2ncnc(Nc3cnc4[nH]ncc4c3)c2c1Br)N1CCCCC1` [Example 61, [5-Bromo-4-(1H-pyrazolo[3,4-b]pyridin-5-ylamino)-7H-pyrrolo[2,3-d]pyrimidin-6-yl](piperidin-1-yl)methanone] yielded a half-maximal inhibitory concentration (IC50) of 120 nM.

As for `CN(C)C1CCN(C(=O)[C@H]2CCc3c(sc4ncnc(Nc5cc6cn[nH]c6cn5)c34)C2)CC1` [Example 91, [4-(Dimethylamino)piperidin-1-yl][(7S)-4-(1H-pyrazolo[3,4-c]pyridin-5-ylamino)-5,6,7,8-tetrahydro[1]benzothieno[2,3-d]pyrimidin-7-yl]methanone], the IC50 came to 3.1 nM.

`COc1nc2[nH]ncc2cc1Nc1ncnc2sc3c(c12)CC[C@H](C(=O)N1CC(N(C)C)C1)C3` [Example 141, [3-(Dimethylamino)azetidin-1-yl]{(7S)-4-[(6-methoxy-1H-pyrazolo[3,4-b]pyridin-5-yl)amino]-5,6,7,8-tetrahydro[1]benzothieno[2,3-d]pyrimidin-7-yl}methanone] gave an IC50 of 1.2 nM.

`CN(C)CCNC(=O)c1cc2c(Nc3cc4cn[nH]c4cn3)ncnc2[nH]1` [Example 22, N-[2-(Dimethylamino)ethyl]-4-(1H-pyrazolo[3,4-c]pyridin-5-ylamino)-7H-pyrrolo[2,3-d]pyrimidine-6-carboxamide] returned an IC50 of 5.4 nM.

Compound `CCc1c[nH]c2ncnc(Nc3cnc4[nH]ncc4c3)c12` [Example 5, N-(5-Ethyl-7H-pyrrolo[2,3-d]pyrimidin-4-yl)-1H-pyrazolo[3,4-b]pyridin-5-amine] registered an IC50 of 12.2 nM.

For `OCc1c[nH]c2ncnc(Nc3cnc4[nH]ncc4c3)c12` [Example 17, [4-(1H-Pyrazolo[3,4-b]pyridin-5-ylamino)-7H-pyrrolo[2,3-d]pyrimidin-5-yl]methanol], the IC50 amounted to 32.2 nM.

For the compound `CCCN(CCOC)C(=O)[C@H]1CCc2c(sc3ncnc(Nc4cc5cn[nH]c5nc4OC)c23)C1` [Example 49, (7S)—N-(2-Methoxyethyl)-4-[(6-methoxy-1H-pyrazolo[3,4-b]pyridin-5-yl)amino]-N-propyl-5,6,7,8-tetrahydro[1]benzothieno[2,3-d]pyrimidine-7-carboxamide], half-maximal inhibition (IC50) was put at 0.3 nM.

`O=C(c1cc2c(Nc3cc4cn[nH]c4cn3)ncnc2[nH]1)N1CCOCC1` [Example 21, Morpholin-4-yl[4-(1H-pyrazolo[3,4-c]pyridin-5-ylamino)-7H-pyrrolo[2,3-d]pyrimidin-6-yl]methanone] came in with an IC50 of 4.2 nM.

`CN(C)C(=O)c1nc2c(Nc3cnc4[nH]ncc4c3)ncnc2s1` [Example 123, N,N-Dimethyl-7-(1H-pyrazolo[3,4-b]pyridin-5-ylamino)[1,3]thiazolo[5,4-d]pyrimidine-2-carboxamide]: the IC50 is 230 nM.

In turn, `O=C(c1[nH]c2ncnc(Nc3cc4cn[nH]c4nc3O)c2c1Br)N1CCCCC1` [Example 134] displayed an IC50 of 10.8 nM.

`CCc1[nH]c2ncnc(Nc3cnc4[nH]ncc4c3)c2c1C` [Example 7, N-(6-Ethyl-5-methyl-7H-pyrrolo[2,3-d]pyrimidin-4-yl)-1H-pyrazolo[3,4-b]pyridin-5-amine] yielded an IC50 of 28.9 nM.

Consider `CC(C)NC(=O)C1CCc2c(sc3ncnc(Nc4cc5cn[nH]c5cn4)c23)C1` (racemic) [Example 24, (RS)—N-(Propan-2-yl)-4-(1H-pyrazolo[3,4-c]pyridin-5-ylamino)-5,6,7,8-tetrahydro[1]benzothieno[2,3-d]pyrimidine-7-carboxamide], for which the IC50 amounted to 10.7 nM.

In turn, `CN(CCC(F)(F)F)C(=O)[C@H]1CCc2c(sc3ncnc(Nc4cnc5[nH]ncc5c4)c23)C1` [Example 94, (7S)—N-Methyl-4-(1H-pyrazolo[3,4-b]pyridin-5-ylamino)-N-(3,3,3-trifluoropropyl)-5,6,7,8-tetrahydro[1]benzothieno[2,3-d]pyrimidine-7-carboxamide] yielded an IC50 of 8.2 nM.
